# According to PMC10163738, “Switch from a ritonavir to a cobicistat containing antiretroviral regimen and impact on tacrolimus levels in a kidney transplant recipient” (Virology Journal, 2023):
# Read-outs that look alike come from different tables or passages of the source. Marks after values point to notes of the source that are not given here.
# Columns and labels:
# [1] = Tacrolimus pharmacokinetic profiles and trough level monitoring before and after switch of booster from ritonavir to cobicistat in an HIV-infected kidney transplant recipient; format: in vivo, human; conditions: for AUC(0-t): read-out: AUC264h; for half-life: read-out: T1/2 (elimination half-life) (converted)
# Source text: Due to the high daily pill burden (i.e., 4 tablets mycophenolate mofetil, 10 tablets for the antiretroviral regimen, 7 pills for the treatment of cardiovascular risk factors, and 8 pills for additional indications), and with new combination antiretroviral pills available, a treatment simplification was envisaged. A feasible antiretroviral treatment considering the multi-drug resistant HIV virus was the combination of dolutegravir (INSTI), rilpivirine (NNRTI), maraviroc and the single tablet combination including emtricitabine, tenofovir alafenamide and darunavir boosted with cobicistat (darunavir/c). […] Due to the inducing properties of ritonavir, we predicted that a switch to cobicistat could result in higher tacrolimus concentrations. During three weeks before and three weeks after the switch we closely monitored tacrolimus drug levels (3 full pharmacokinetic profiles before and after changing the booster) to evaluate the effect on tacrolimus exposure (Figs. 1, 2).
# Fig. 1 Tacrolimus profiles during ritonavir-boosted and cobicistat-boosted antiretroviral regimens. Three 11 days pharmacokinetic tacrolimus concentrations profiles in blue while on the ritonavir-boosted regimen before the switch and in red while on the cobicistat-boosted regimen after the switch. *For practical reasons (weekend, holidays) tacrolimus trough levels were measured on day 9 at the end of the third pharmacokinetic profile and on day 10 at the end of the sixth pharmacokinetic profile
# Fig. 2 Antiretroviral treatment and tacrolimus trough levels before and after therapy switch. Blue bars indicate drugs before switch and blue dots tacrolimus levels before switch. Red bars indicate drugs after switch and red dots indicate tacrolimus trough levels after switch.
# [2] = renal transplant recipients in absence of strong inhibitors; cited from earlier work
# [3] = Tacrolimus pharmacokinetic profiles and trough level monitoring before and after switch of booster from ritonavir to cobicistat in an HIV-infected kidney transplant recipient; format: in vivo, human; conditions: co-administered with darunavir/ritonavir 800/100 mg once daily, 3rd pharmacokinetic profile, dosing interval 10 days for practical reasons
# [4] = set-up: method as in PMID 25708713; conditions: co-administered with ritonavir; cited from earlier work
# [5] = human, plasma, oral, co-administered with darunavir/cobicistat 800/150 mg once daily, 1st pharmacokinetic profile
# [6] = human, plasma, oral, co-administered with darunavir/cobicistat 800/150 mg once daily, 2nd pharmacokinetic profile
# [7] = human, plasma, oral, co-administered with darunavir/cobicistat 800/150 mg once daily, 3rd pharmacokinetic profile
structure (smiles),measurement,setting,value
"C=CC[C@@H]1/C=C(\C)C[C@H](C)C[C@H](OC)[C@H]2O[C@@](O)(C(=O)C(=O)N3CCCC[C@H]3C(=O)O[C@H](/C(C)=C/[C@@H]3CC[C@@H](O)[C@H](OC)C3)[C@H](C)[C@@H](O)CC1=O)[C@H](C)C[C@@H]2OC [Tacrolimus, tacrolimus]",Tmax,"[1]; co-administered with darunavir/cobicistat 800/150 mg once daily, 1st pharmacokinetic profile",2 h
same,C0h (pre-dose plasma concentration),"[1]; co-administered with darunavir/cobicistat 800/150 mg once daily, 2nd pharmacokinetic profile, tacrolimus once every 11 days",4.1 µg/L
same,C0h (pre-dose plasma concentration),"[1]; co-administered with darunavir/cobicistat 800/150 mg once daily, 3rd (sixth overall) pharmacokinetic profile, dosing interval 10 days for practical reasons",4.0^a µg/L
same,C0h (pre-dose plasma concentration),"[1]; co-administered with darunavir/ritonavir 800/100 mg once daily, 1st pharmacokinetic profile, tacrolimus once every 11 days",7.3 µg/L
same,C0h (pre-dose plasma concentration),"[1]; co-administered with darunavir/ritonavir 800/100 mg once daily, 2nd pharmacokinetic profile, tacrolimus once every 11 days",6.1 µg/L
same,C0h (pre-dose plasma concentration),"[1]; darunavir/cobicistat 800/150 mg once daily section, 1st profile, trough at the day of the switch, i.e. last trough on darunavir/ritonavir, immediately before darunavir/cobicistat",6.8^b µg/L
same,tacrolimus trough level,"[1]; eleven months post pharmacokinetic booster switch (cobicistat-boosted regimen), dosing interval 11 days",2.1 µg/L
same,Cmax,"[1]; human, plasma, oral, 0.5 mg, co-administered with darunavir/ritonavir 800/100 mg once daily, 1st pharmacokinetic profile",15.1 ng/mL
same,Cmax,"[1]; human, plasma, oral, 0.5 mg, co-administered with darunavir/ritonavir 800/100 mg once daily, 2nd pharmacokinetic profile",17.7 ng/mL
same,Cmax,"[1]; human, plasma, oral, 0.5 mg, co-administered with darunavir/ritonavir 800/100 mg once daily, 3rd pharmacokinetic profile",17.6 ng/mL
same,Cmax,[1]; [5],11.7 ng/mL
same,AUC(0-t),"[1]; human, plasma, oral, co-administered with darunavir/cobicistat 800/150 mg once daily, 1st pharmacokinetic profile, dosing interval 11 days",1750 ng·h/mL
same,half-life,[1]; [5],226 h
same,Cmax,[1]; [6],13.7 ng/mL
same,AUC(0-t),"[1]; human, plasma, oral, co-administered with darunavir/cobicistat 800/150 mg once daily, 2nd pharmacokinetic profile, dosing interval 11 days",1870 ng·h/mL
same,half-life,[1]; [6],175 h
same,Tmax,"[1]; human, plasma, oral, co-administered with darunavir/cobicistat 800/150 mg once daily, 2nd pharmacokinetic profile, read-out: Tmax",8 h
same,Cmax,[1]; [7],12.6 ng/mL
same,half-life,[1]; [7],183 h
same,Tmax,"[1]; human, plasma, oral, co-administered with darunavir/cobicistat 800/150 mg once daily, 3rd pharmacokinetic profile, read-out: Tmax",4 h
same,AUC(0-t),"[1]; human, plasma, oral, co-administered with darunavir/ritonavir 800/100 mg once daily, 1st pharmacokinetic profile, dosing interval 11 days",2650 ng·h/mL
same,half-life,"[1]; human, plasma, oral, co-administered with darunavir/ritonavir 800/100 mg once daily, 1st pharmacokinetic profile",227 h
same,Tmax,"[1]; human, plasma, oral, co-administered with darunavir/ritonavir 800/100 mg once daily, 1st pharmacokinetic profile, read-out: Tmax",8 h
same,AUC(0-t),"[1]; human, plasma, oral, co-administered with darunavir/ritonavir 800/100 mg once daily, 2nd pharmacokinetic profile, dosing interval 11 days",2380 ng·h/mL
same,half-life,"[1]; human, plasma, oral, co-administered with darunavir/ritonavir 800/100 mg once daily, 2nd pharmacokinetic profile",275 h
same,Tmax,"[1]; human, plasma, oral, co-administered with darunavir/ritonavir 800/100 mg once daily, 2nd pharmacokinetic profile, read-out: Tmax",4 h
same,half-life,"[1]; human, plasma, oral, co-administered with darunavir/ritonavir 800/100 mg once daily, 3rd pharmacokinetic profile",266 h
same,Tmax,"[1]; human, plasma, oral, co-administered with darunavir/ritonavir 800/100 mg once daily, 3rd pharmacokinetic profile, read-out: Tmax",4 h
same,AUC(0-t),"[1]; human, plasma, oral, co-administered with darunavir/cobicistat 800/150 mg once daily, 3rd (sixth overall) pharmacokinetic profile, dosing interval 10 days for practical reasons",1240 ng·h/mL
same,CL/F,[2],6.7 L/h
same,T1/2,[2],15.6 h
same,C0h (pre-dose plasma concentration),[3],6.2^a µg/L
same,AUC(0-t),"[3]; human, plasma, oral, read-out: AUC264h",2350 ng·h/mL
same,increase of tacrolimus elimination half-life,[4],sevenfold
same,increase of tacrolimus exposure,[4],57 fold
